Test results published in PubChem BioAssay (NCI).
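Results reflect a 48-hour exposure of cells in 96-well plates to compound at five concentrations. TGI: total growth inhibition.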

Experiments:
Assay in all cases: NCI tumour cell line growth inhibition, 48 h
786-0 renal = test system: 786-0 renal
A498 renal = test system: A498 renal
A549 NSCLC = test system: A549 NSCLC
ACHN renal = test system: ACHN renal
CAKI-1 renal = test system: CAKI-1 renal
CCRF-CEM leukemia = test system: CCRF-CEM leukemia
COLO 205 colon = test system: COLO 205 colon
DMS 114 small cell lung = test system: DMS 114 small cell lung
DMS 273 small cell lung = test system: DMS 273 small cell lung
HCC-2998 colon = test system: HCC-2998 colon
HCT-116 colon = test system: HCT-116 colon
HCT-15 colon = test system: HCT-15 colon
HL-60(TB) leukemia = test system: HL-60(TB) leukemia
HOP-18 NSCLC = test system: HOP-18 NSCLC
HOP-62 NSCLC = test system: HOP-62 NSCLC
HOP-92 NSCLC = test system: HOP-92 NSCLC
HT29 colon = test system: HT29 colon
IGROV1 ovarian = test system: IGROV1 ovarian
K-562 leukemia = test system: K-562 leukemia
KM20L2 colon = test system: KM20L2 colon
LOX IMVI melanoma = test system: LOX IMVI melanoma
LXFL 529 NSCLC = test system: LXFL 529 NSCLC
M14 melanoma = test system: M14 melanoma
M19-MEL melanoma = test system: M19-MEL melanoma
MALME-3M melanoma = test system: MALME-3M melanoma
MOLT-4 leukemia = test system: MOLT-4 leukemia
NCI-H226 lung = test system: NCI-H226 lung
NCI-H23 lung = test system: NCI-H23 lung
NCI-H460 lung = test system: NCI-H460 lung
OVCAR-3 ovarian = test system: OVCAR-3 ovarian
OVCAR-4 ovarian = test system: OVCAR-4 ovarian
OVCAR-5 ovarian = test system: OVCAR-5 ovarian
OVCAR-8 ovarian = test system: OVCAR-8 ovarian
RPMI-8226 leukemia = test system: RPMI-8226 leukemia
RXF-631 renal = test system: RXF-631 renal
SF-268 CNS = test system: SF-268 CNS
SF-295 CNS = test system: SF-295 CNS
SK-MEL-28 melanoma = test system: SK-MEL-28 melanoma
SK-MEL-5 melanoma = test system: SK-MEL-5 melanoma
SK-OV-3 ovarian = test system: SK-OV-3 ovarian
SN12C renal = test system: SN12C renal
SNB-19 CNS = test system: SNB-19 CNS
SR leukemia = test system: SR leukemia
SW-620 colon = test system: SW-620 colon
TK-10 renal = test system: TK-10 renal
U251 CNS = test system: U251 CNS
UACC-257 melanoma = test system: UACC-257 melanoma
UACC-62 melanoma = test system: UACC-62 melanoma
UO-31 renal = test system: UO-31 renal
DLD-1 colon = test system: DLD-1 colon
EKVX NSCLC = test system: EKVX NSCLC
KM12 colon = test system: KM12 colon
NCI-H522 lung = test system: NCI-H522 lung
RXF 393 renal = test system: RXF 393 renal
SF-539 CNS = test system: SF-539 CNS
SK-MEL-2 melanoma = test system: SK-MEL-2 melanoma
SNB-75 CNS = test system: SNB-75 CNS
SNB-78 CNS = test system: SNB-78 CNS
XF 498 CNS = test system: XF 498 CNS

Measured: TGI

CCOC(=O)C1C2CCC(C2)C1(CCl)C(=O)OCC (stereo not drawn)
not listed: DLD-1 colon | EKVX NSCLC | KM12 colon | NCI-H522 lung | RXF 393 renal | SF-539 CNS | SK-MEL-2 melanoma | SNB-75 CNS | SNB-78 CNS | XF 498 CNS
> 100 µM: all other assays above

CCCCCCCCCCCCCC(=O)OCC1OC(n2cc(F)c(=O)[nH]c2=O)C(NC(=O)OCc2ccccc2)C(OC(=O)CCCCCCCCCCCCC)C1O (stereo not drawn)
> 100 µM: all assays above
